Data on nine compounds can be found in publication PMC8002983, “Mammalian Arginase Inhibitory Activity of Methanolic Extracts and Isolated Compounds from Cyperus Species” (Molecules, 2021).

The structures appear in SMILES notation.

The test system of the first experiment is aortic rings from adjuvant induced-arthritis rats. Kind of experiment: ex vivo acetylcholine-induced relaxation in isolated aortic rings from arthritic rats. Further details: species or system rat. The conditions noted are these: day 33 post-immunization, phenylephrine 10^−6 mol/L preconstriction, nor-NOHA 10^−4 mol/L, extract 2.6 10^−3 mg/mL. How it is done:
This part of the experiment was performed on 15 male Lewis rats (6 weeks old), purchased from JanvierLabs (Le Genest Saint Isle, France). The experimental procedures were approved by the local ethics committee for animal experimentation No. 2015/001-CD/5PR of Franche-Comté University (Besançon, France) and complied with the “Animal Research: Reporting In Vivo Experiments” (ARRIVE) guidelines.
Arthritis was induced by a single intradermal injection to the tail of 120 μL of 10 mg·ml^−1 heat-killed Mycobacterium butyricum suspended in Freund’s incomplete adjuvant, as described previously. Non-arthritic age-matched rats were used as controls and received saline at the base of the tail.
At 33 days post-immunization, corresponding to the acute phase of arthritis, the rats were anesthetized using sodium pentobarbital 60 mg/kg (Ceva Santé Animale, France). The descending thoracic aorta was excised and carefully cleaned for vascular study as previously described. […] To assess the effect of arginase inhibitors, experiments were repeated in the presence of nor-NOHA (10^−4 M) and C. thunbergii extract (at EC50 obtained by in vitro test), respectively.
For `N=C(NO)NCC[C@H](N)C(=O)O` [nor-NOHA, Nω-hydroxy-nor-L-arginine], the “effect on depressed Ach-induced endothelium-dependent relaxation (endothelial dysfunction)” value is recorded as “relaxation was higher”.

The target of a further experiment is T1, purified liver bovine arginase (b-ARGI) (Bos taurus, UniProt Q2KJ64).
T1 construct: purified liver bovine arginase 1, which was purchased from MP Biomedicals; purchased MP Biomedicals (Illkirch-Graffenstaden, France); host or cells: bovine liver (tissue-purified)
T1 sequence (Q2KJ64 1-322): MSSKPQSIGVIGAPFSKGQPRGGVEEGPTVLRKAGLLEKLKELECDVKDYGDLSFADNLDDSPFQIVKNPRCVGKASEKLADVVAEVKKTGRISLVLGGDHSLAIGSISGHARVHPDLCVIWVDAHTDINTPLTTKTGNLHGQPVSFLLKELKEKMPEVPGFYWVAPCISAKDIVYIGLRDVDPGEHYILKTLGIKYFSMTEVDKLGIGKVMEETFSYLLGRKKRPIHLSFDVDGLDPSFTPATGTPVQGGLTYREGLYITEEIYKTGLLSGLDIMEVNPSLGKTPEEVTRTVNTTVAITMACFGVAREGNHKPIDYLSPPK
Assay: not given
Further details: method as in PMID 27776374, PMID 28837342. The conditions noted are these: mammalian arginase; read-out: Arginase inhibition IC50 of natural inhibitor piceatannol; cited from earlier work.
In the case of `Oc1cc(O)cc(/C=C/c2ccc(O)c(O)c2)c1` [piceatannol], the IC50 is 12.6 µM.

The next experiment concerns the target T1, purified liver bovine arginase (b-ARGI). As to the kind of experiment: in vitro arginase inhibitory assay (colorimetric urea detection). In kind it is biochemical. The note with it: means ± SEM, three distinct experiments in triplicate, read-out: Arginase Inhibition, IC50. As to the method: The amount of urea produced by the hydrolysis of L-arginine by arginase (purified liver bovine arginase (b-ARGI)) can be detected using a color reactant (α-isonitrosopropiophenone) followed by a colorimetric assay, as described below. In each well of a 96-well microplate, the solutions were added in the following order: (1) buffer containing Tris-HCl (50 mM, pH 7.5) and 0.1% of bovine serum albumin (TBSA buffer) (10 μL), with or without (control) arginase (0.025 U/μL); (2) Tris-HCl solution (50 mM, pH 7.5) containing 10 mM MnCl2 as a cofactor (30 μL); (3) a solution containing an inhibitor or its solvent (as a control) (10 μL); (4) a solution of L-arginine (pH 9.7, 0.05 M) (20 μL). The microplate was incubated for 60 min in a 37 °C water bath after covering with a plastic sealing film. The addition of 120 μL of H2SO4/H3PO4/H2O (1:3:7) quenched the reaction. The microplate was left on ice for 5 min. Thereafter, 10 μL of α-isonitrosopropiophenone (5% in absolute ethanol (EtOH)) was added, and the microplate was heated in an oven at 100 °C for 45 min, after covering with an aluminum sealing film. As the colored product is photosensitive, the microplate was kept in the dark until reading. After 5 min of centrifugation and cooling for another 10 min, the microplate was shaken for 2 min and the absorbance was read at 550 nm and 25 °C using a spectrophotometer (Synergy HT BioTeck). The level of arginase activity was expressed as relative to the “100% arginase activity”. The experiment was repeated three times with each microplate under similar experimental conditions (e.g., various inhibitor concentrations.)
The percentage of arginase inhibitory activity and IC50 values was evaluated as previously described. A stock solution (70 mM) was prepared in DMSO and stored at −26 °C for each compound. These stock solutions were extemporaneously and successively diluted in ultrapure H2O to afford the following concentrations: 7000, 2100, 700, 210, 70, 21, 7, 2.1, and 0.7 μM, corresponding to final concentrations in the wells of 1000, 300, 100, 30, 10, 3, 1, 0.3, 0.1 μM, respectively. For a first screening, compounds were tested at final concentrations of 10 and 100 μM. Each solution was incubated with arginase for 1 h, as described above. The percentage of arginase inhibition was calculated by conversion of the resulting absorbance (relative to the absorbance of controls with only solvent (“100% arginase activity”)) and plotted on a semilogarithmic scale. The IC50 values were estimated by nonlinear sigmoidal curve-fitting by using Prism (GraphPad Software, version 5.0.3).
Consider `O=C1/C(=C/c2ccc(O)c(O)c2)Oc2cc(O)cc(O)c21` [Compound 5, aureusidin], for which the 50% inhibitory concentration (IC50) came to 57.1 ± 2.3 µM.
For the compound `Oc1ccc(/C=C/c2cc(O)cc(O)c2)cc1` [Compound 3, trans-resveratrol], the half-maximal inhibitory concentration (IC50) came out at 105 ± 4.1 µM.
Same read-out and setting: next, `COc1cc2c3c(c1)O[C@H](C)CC3(C)c1cc3oc(OC)ccc-3c1O2` (stereo partly drawn) [Compound 2, thunbergin B]: 74.1 ± 3.7 µM; `Oc1ccc(/C=C/c2cc(O)cc3c2[C@H](c2cc(O)cc(O)c2)[C@@H](c2ccc(O)c(O)c2)O3)cc1` (stereo in doubt) [Compound 4, trans-scirpusin A]: 17.6 ± 2.2 µM; `Oc1cc(O)cc(-c2c(-c3ccc(O)c(O)c3)oc3cc4oc(-c5ccc(O)c(O)c5)c(-c5cc(O)cc(O)c5)c4c(/C=C/c4ccccc4)c23)c1` [Compound 6, trans-cyperusphenol A]: 19.4 ± 1.3 µM.
Regarding `COc1cc2c3c(cc(O)cc3c1)C(C)(C)c1c-2ccc(OC)c1O` [Compound 1, 4,6-dihydroxy-12-dimethyl-3,10-dimethoxybenzophenanthrene], the IC50 worked out at 28.8 ± 2.5 µM.
As for `O=c1cc(-c2ccc(O)c(O)c2)oc2cc(O)cc(O)c12` [Compound 7, luteolin], the concentration for half-maximal inhibition (IC50) stood at 60.6 ± 3.1 µM.

In general, IC50 refers to the concentration that gives 50% inhibition.
